“And” between values parts separate entries of the source, which are not always exact repeats. Equal entries are not always repeated.
How the values were obtained:
PC3-mice = experiment: Biodistribution in PC3-mice incl. blocking; format: in vivo, mouse; settings: PC3-mice
Experimental: Male athymic Balb/C nude mice (6 weeks/20–25 g) were implanted with PC3 cells (3.5 × 10^6/100 µL PBS) into their right shoulder to develop tumors. The animals were used for biodistribution and PET/SPECT/CT imaging studies, once tumors reached 250–300 mm^3.
All mice were euthanized with intraperitoneal injection of pentobarbital (150 mg/kg), and selected organs were dissected, weighed, and measured for radioactivity using a gamma-counter. Results are expressed as % injected activity per gram tissue (% I.A./g), presented as mean ± SD (n = 3–4).

FAP = biological target: T1, FAP (Homo sapiens, UniProt Q12884); experiment: Saturation binding on FAP+ CAFs; settings: listed as 68/natGa-DO3A.Glu.(FAPI)2
T1 construct: the CAF cells overexpressing FAP were seeded at a density of 0.8-1 million cells per well; host or cells: hTERT PF179T prostate cancer-associated fibroblasts
T1 sequence (Q12884 1-760): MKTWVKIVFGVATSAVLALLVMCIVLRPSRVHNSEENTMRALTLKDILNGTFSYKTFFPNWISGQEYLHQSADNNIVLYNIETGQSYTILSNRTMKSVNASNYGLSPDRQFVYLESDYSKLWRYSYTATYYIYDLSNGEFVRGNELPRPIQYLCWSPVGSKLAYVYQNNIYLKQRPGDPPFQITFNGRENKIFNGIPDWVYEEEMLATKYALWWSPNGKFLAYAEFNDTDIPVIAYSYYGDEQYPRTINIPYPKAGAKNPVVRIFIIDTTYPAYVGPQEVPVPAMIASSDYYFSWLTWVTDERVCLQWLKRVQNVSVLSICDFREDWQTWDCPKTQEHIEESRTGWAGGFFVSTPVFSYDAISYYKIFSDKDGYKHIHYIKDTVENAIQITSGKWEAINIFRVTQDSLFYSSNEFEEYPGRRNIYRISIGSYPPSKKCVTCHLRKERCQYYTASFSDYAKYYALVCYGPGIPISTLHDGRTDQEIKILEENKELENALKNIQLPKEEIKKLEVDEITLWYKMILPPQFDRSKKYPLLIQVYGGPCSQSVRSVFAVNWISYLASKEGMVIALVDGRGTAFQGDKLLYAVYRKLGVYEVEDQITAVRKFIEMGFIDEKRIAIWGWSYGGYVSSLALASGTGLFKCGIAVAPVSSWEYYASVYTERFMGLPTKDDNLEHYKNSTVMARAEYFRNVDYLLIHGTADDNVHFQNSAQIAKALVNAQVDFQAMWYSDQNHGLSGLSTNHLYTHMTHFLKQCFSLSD
Experimental: For receptor saturation studies, FAP^+ CAFs were incubated with 0.1 to 10 nM of the radioligands. For internalization studies, approximately 2.5 pmol of the radioligands were added to CAFs followed by incubation for 15, 30, 60, 90, 120, 180 and 240 min for the ^68Ga-labeled or 30, 60, 120, 240 and 360 min for the ^177Lu-labeled radioligands at 37 °C, 5% CO2. For the externalization studies, approximately 2.5 pmol of the ^177Lu-labeled radioligands were added to CAFs followed by incubation for 2 h at 37 °C, 5% CO2. The amount of externalized activity was measured at 0, 10, 20, 30, 60, 120, 240, and 1440 min (Supplemental Data).
For receptor saturation analysis, the CAF cells overexpressing FAP were seeded at a density of 0.8-1 million cells per well in 6-well plates, pre-coated with BME (Cultrex Reduced Growth Factor Basement Membrane Extract, RGF BME, R&D System, Minneapolis, USA) to enhance cell attachment. The cells were incubated overnight with medium (EMEM supplemented and containing 10% FBS, 100 U/mL penicillin and 100 μg/mL streptomycin). The next day, the medium was removed and the cells were incubated for 30 minutes at 37 °C, with 0.8 mL of fresh medium. Afterwards, the plates were placed on ice for 30 minutes followed by incubation with increasing concentrations of ^68/natGa- and ^177/natLu-labelled DOTAGA.Glu.(FAPI)2 and DO3A.Glu.( FAPI)2 (0.1-10 nM final concentration in the wells). After the addition of the radioligands, the cells were incubated for 120 minutes at 4 °C. Non-specific binding was determined in the presence of UAMC1110 at a final concentration of 1 μM. After the completion of the incubation, the cells were washed twice with ice-cold PBS, followed by solubilization with 1 M NaOH. The cell-associated radioactivity was measured using a gamma-counter. Specific binding was plotted against the total molar concentration of the added radiotracer. The Kd values and the concentration of the radioligand required to saturate the receptors (Bmax) were determined by nonlinear regression using GraphPad (Prism 8 Graph Pad Software, San Diego, CA). For all the cell studies the values are normalized for 1x10^6 cells per well and all data are from two independent experiments with triplicates in each experiment.

[1] = Blocking 1h (20 nmol unlabeled precursor)

Q: Which “Uptake in Adrenal” value (PC3-mice; 1 h p.i.) does the source give for `N#C[C@@H]1CC(F)(F)CN1C(=O)CNC(=O)c1ccnc2ccc(OCCCCNC(=O)CC[C@H](NC(=O)CN3CCN(CC(=O)[O-])CCN(CC(=O)[O-])CCN(CC(=O)[O-])CC3)C(=O)NCCCCOc3ccc4nccc(C(=O)NCC(=O)N5CC(F)(F)C[C@H]5C#N)c4c3)cc12.[68Ga+3]` [[^68Ga]Ga-DO3A.Glu.(FAPI)2] here?
A: 3.6±1.1 %I.A./g

Q: What about the “Uptake in Blood” value (PC3-mice; 1 h p.i.) of the same compound?
A: 2±0.1 %I.A./g

Q: What about the “Uptake in Bone” value (PC3-mice; 1 h p.i.) of the same compound?
A: 5±3.1 %I.A./g

Q: What about the “Uptake in Gallbladder” value (PC3-mice; 1 h p.i.) of the same compound?
A: 2.3±1.8 %I.A./g

Q: What about the “Uptake in Heart” value (PC3-mice; 1 h p.i.) of the same compound?
A: 1±0.1 %I.A./g

Q: What about the “Uptake in Intestine” value (PC3-mice; 1 h p.i.) of the same compound?
A: 0.9±0.2 %I.A./g

Q: What about the “Uptake in Kidney” value (PC3-mice; 1 h p.i.) of the same compound?
A: 6.7±1.7 %I.A./g

Q: What about the “Uptake in Liver” value (PC3-mice; 1 h p.i.) of the same compound?
A: 4.2±1.2 %I.A./g

Q: What about the “Uptake in Lung” value (PC3-mice; 1 h p.i.) of the same compound?
A: 3.8±1 %I.A./g

Q: And the “Uptake in Muscle” value (PC3-mice; 1 h p.i.)?
A: 2±0.03 %I.A./g

Q: And the “Uptake in Pancreas” value (PC3-mice; 1 h p.i.)?
A: 1.8±0.1 %I.A./g

Q: And the “Uptake in Salivary glands” value (PC3-mice; 1 h p.i.)?
A: 6.4±0.5 %I.A./g

Q: And the “Uptake in Spleen” value (PC3-mice; 1 h p.i.)?
A: 1.3±0.3 %I.A./g

Q: And the “Uptake in Stomach” value (PC3-mice; 1 h p.i.)?
A: 0.9±0.1 %I.A./g

Q: What about the “Uptake in Tumor” value (PC3-mice; 1 h p.i.) of the same compound?
A: 19±2.4 %I.A./g

Q: What about the “Uptake in Adrenal” value (PC3-mice; 2 h p.i.) of the same compound?
A: 2.5±0.8 %I.A./g

Q: And the “Uptake in Blood” value (PC3-mice; 2 h p.i.)?
A: 2.2±0.1 %I.A./g

Q: And the “Uptake in Bone” value (PC3-mice; 2 h p.i.)?
A: 6.3±1 %I.A./g

Q: And the “Uptake in Gallbladder” value (PC3-mice; 2 h p.i.)?
A: 3.5±1.8 %I.A./g

Q: And the “Uptake in Heart” value (PC3-mice; 2 h p.i.)?
A: 0.8±0.03 %I.A./g

Q: And the “Uptake in Intestine” value (PC3-mice; 2 h p.i.)?
A: 1±0.2 %I.A./g

Q: And the “Uptake in Kidney” value (PC3-mice; 2 h p.i.)?
A: 4.4±0.8 %I.A./g

Q: And the “Uptake in Liver” value (PC3-mice; 2 h p.i.)?
A: 3.3±0.9 %I.A./g

Q: And the “Uptake in Lung” value (PC3-mice; 2 h p.i.)?
A: 2.5±0.6 %I.A./g

Q: And the “Uptake in Muscle” value (PC3-mice; 2 h p.i.)?
A: 1.3±0.3 %I.A./g

Q: And the “Uptake in Pancreas” value (PC3-mice; 2 h p.i.)?
A: 1.7±0.1 %I.A./g

Q: And the “Uptake in Salivary glands” value (PC3-mice; 2 h p.i.)?
A: 5.2±0.1 %I.A./g

Q: And the “Uptake in Spleen” value (PC3-mice; 2 h p.i.)?
A: 1.6±0.4 %I.A./g

Q: And the “Uptake in Stomach” value (PC3-mice; 2 h p.i.)?
A: 0.9±0.1 %I.A./g

Q: And the “Uptake in Tumor” value (PC3-mice; 2 h p.i.)?
A: 19.6 ± 0.7 %I.A./g

Q: What about the “Uptake in Adrenal” value (PC3-mice; 3 h p.i.) of the same compound?
A: 2.4±0.8 %I.A./g

Q: And the “Uptake in Blood” value (PC3-mice; 3 h p.i.)?
A: 2.2±0.1 %I.A./g

Q: And the “Uptake in Bone” value (PC3-mice; 3 h p.i.)?
A: 5.8±1 %I.A./g

Q: And the “Uptake in Gallbladder” value (PC3-mice; 3 h p.i.)?
A: 1.7±0.9 %I.A./g

Q: And the “Uptake in Heart” value (PC3-mice; 3 h p.i.)?
A: 0.7±0.1 %I.A./g

Q: And the “Uptake in Intestine” value (PC3-mice; 3 h p.i.)?
A: 0.9±0.2 %I.A./g

Q: What about the “Uptake in Kidney” value (PC3-mice; 3 h p.i.) of the same compound?
A: 3.4±0.4 %I.A./g

Q: And the “Uptake in Liver” value (PC3-mice; 3 h p.i.)?
A: 2.8±0.3 %I.A./g

Q: What about the “Uptake in Lung” value (PC3-mice; 3 h p.i.) of the same compound?
A: 1.7±0.3 %I.A./g

Q: What about the “Uptake in Muscle” value (PC3-mice; 3 h p.i.) of the same compound?
A: 1.1±0.1 %I.A./g

Q: And the “Uptake in Pancreas” value (PC3-mice; 3 h p.i.)?
A: 1.4±0.1 %I.A./g

Q: What about the “Uptake in Salivary glands” value (PC3-mice; 3 h p.i.) of the same compound?
A: 5±1.4 %I.A./g

Q: And the “Uptake in Spleen” value (PC3-mice; 3 h p.i.)?
A: 1.4±0.3 %I.A./g

Q: What about the “Uptake in Stomach” value (PC3-mice; 3 h p.i.) of the same compound?
A: 0.7±0.02 %I.A./g

Q: And the “Uptake in Tumor” value (PC3-mice; 3 h p.i.)?
A: 17.5 ± 1.1 %I.A./g

Q: What about the “Uptake in Adrenal” value (PC3-mice; [1]) of the same compound?
A: 0.1±0.6 %I.A./g

Q: And the “Uptake in Blood” value (PC3-mice; [1])?
A: 2.3±0.5 %I.A./g

Q: What about the “Uptake in Bone” value (PC3-mice; [1]) of the same compound?
A: 0.3±0.1 %I.A./g

Q: What about the “Uptake in Gallbladder” value (PC3-mice; [1]) of the same compound?
A: 3.5±0.3 %I.A./g

Q: And the “Uptake in Heart” value (PC3-mice; [1])?
A: 0.7±0.2 %I.A./g

Q: And the “Uptake in Intestine” value (PC3-mice; [1])?
A: 0.8±0.3 %I.A./g

Q: What about the “Uptake in Kidney” value (PC3-mice; [1]) of the same compound?
A: 6.2±1.2 %I.A./g

Q: And the “Uptake in Liver” value (PC3-mice; [1])?
A: 3.2±0.7 %I.A./g

Q: What about the “Uptake in Lung” value (PC3-mice; [1]) of the same compound?
A: 2.1±0.4 %I.A./g

Q: What about the “Uptake in Muscle” value (PC3-mice; [1]) of the same compound?
A: 0.3±0.01 %I.A./g

Q: And the “Uptake in Pancreas” value (PC3-mice; [1])?
A: 0.4±0.1 %I.A./g

Q: What about the “Uptake in Salivary glands” value (PC3-mice; [1]) of the same compound?
A: 0.7±0.1 %I.A./g

Q: And the “Uptake in Spleen” value (PC3-mice; [1])?
A: 1±0.1 %I.A./g

Q: And the “Uptake in Stomach” value (PC3-mice; [1])?
A: 0.8±0.3 %I.A./g

Q: And the “Uptake in Tumor” value (PC3-mice; [1])?
A: 1.3±0.2 %I.A./g

Q: And the Blood pool retention (PC3-mice; over 3 h)?
A: around 2 %I.A./g

Q: And the tumor uptake (PC3-mice; sustained up to 3 h p.i.)?
A: 18–19 %I.A./g

Q: And the Kd (FAP; 0.1 to 10 nM radioligand)?
A: 0.9 nM and 0.89 nM

Q: What about the Bmax (FAP) of the same compound?
A: 0.5 ± 0.05 nM and 0.54 ± 0.05 nM

— paper PMC12860872, “Preclinical evaluation of DOTAGA.Glu.(FAPI)2 and DO3A.Glu.(FAPI)2 as theranostics with human dosimetry extrapolation to lutetium-177 and terbium-161 analogs” (European Journal of Nuclear Medicine and Molecular Imaging, 2025)
